Several values for one entry are separate records, joined by “and”; a condition that tells them apart may be missing. Equal entries are not always repeated. Where two headings read alike, the source gives them in different places. Where a SMILES comes first, the peptide text is derived from it.
Key:
[1] = system: B16F0 murine melanoma cell line; assay: cells; type: cell-based; details: for % Of melanogenesis inhibition at a specific inhibitor concentration / inhibition at 10 µM / inhibition at 40 µM: B16F0, 48 h; for inhibition at 10 µM / inhibition at 40 µM: read-out: % Of melanogenesis inhibition at a specific inhibitor concentration
Experimental: The effect of the synthetic compounds on melanogenesis inhibition was performed in B16F0 murine melanoma cell line. The mouse model of human skin is often employed in skin biology and cancer research due to numerous similarities.[62] B16F0 murine melanoma cell line shares most of the melanogenesis with human melanocytes. Therefore, it is the proper model for screening the effect of potential inhibitors on melanogenesis.[63]

[2] = system: B16F0 murine melanoma cell line; assay: cells; type: cell-based; details: 48 h
Experimental: B16F0 murine melanoma cell line was cultured in DMEM (Biowest, Nuaillé, France) medium supplemented with 100 U/ml streptomycin (Sigma-Aldrich, Taufkirchen, Germany), 100 U/ml penicillin (Sigma-Aldrich, Taufkirchen, Germany), and 10% foetal bovine serum (Sigma-Aldrich, Taufkirchen, Germany). Cells were maintained in 5% CO2 at 37 °C. Cells viability was estimated by MTT colorimetric assay as described by Bellei et al.[51] B16 cells were seeded into 96-well plate (4 × 10^3 cells/well) and incubated in the presence of the investigated compounds at various concentrations (1000, 400, 100, 40, 10, 1, 0.1 μM) for 48 h. Kojic acid and DMSO were used as controls. MTT was added into wells (0.625 mg/ml, Sigma-Aldrich, Taufkirchen, Germany) for the last 4 h. Then lysing buffer was added to dissolve insoluble formazan. The absorbance was measured (λ = 570 nm) using Thermo Lab Multiscan RC microplate reader.

[3] = target: T1, mushroom tyrosinase (Agaricus bisporus, UniProt C7FF04); assay: Tyrosinase inhibition assay (diphenolase activity, L-DOPA substrate); type: biochemical; details: for IC50 / tyrosinase inhibition (in words): diphenolase activity; for IC50: L-DOPA 5 mM; for tyrosinase inhibition (in words): tested range of concentrations
Experimental: The tyrosinase enzymatic assay was performed according to the protocol described previously in our papers[46–48] using L-3,4-dihydroxyphenylalanine (L-DOPA) (Sigma-Aldrich, Germany) as a substrate. L-DOPA was dissolved in an aqueous 0.15 mM phosphoric(V) acid solution, preventing its oxidation. […] Tyrosinase powder (Sigma-Aldrich, Germany) was dissolved in the assay buffer to obtain a concentration of 50,000 units/mL. This stock solution was divided into 50 μL aliquots, each one containing 2500 units of tyrosinase, and stored at −80 °C. Shortly before the assay, one of the aliquots was reconstituted in the assay buffer up to 3000 μL. First, 10 μL of the diluted enzyme solution was preincubated with samples at various concentrations for 5 min at 25 °C. Afterwards, 20 μL of L-DOPA solution was added.
The screening of tyrosinase activity of the synthetic compounds was performed according to the procedure previously reported in our articles.[46–48] As reported in most of the research dealing with tyrosinase inhibition, we employed mushroom tyrosinase, due to the lack of information and the limited availability of human tyrosinase.[59]^,[60] All the compounds were evaluated at different concentrations after incubation with tyrosinase in solution for 5 min at room temperature. Afterwards, the substrate L-DOPA was added to start the enzymatic reaction. The absorbance provided by the colourful derivative, dopachrome, was measured every 5 s for 10 min in order to monitor the progress of the reaction over time. […] (1) % of ENZactivity=Sampleslope/ECslope×100

[4] = target: T1, mushroom tyrosinase; details: cited from earlier work; for tyrosinase inhibition (in words): previous paper
[5] = system: B16F0 murine melanoma cell line; set-up: method as in PMID 30248509; details: previous paper; read-out: IC50 value for melanogenesis; cited from earlier work
[6] = n = 3, read-out: The maximum percentage of inhibition reached for poor inhibitors
[7] = Mus musculus, B16F0, n = 3, read-out: IC50 of melanin production
[8] = Mus musculus, B16F0, MTT, n = 3, read-out: IC50 of cell proliferation

T1 sequence (C7FF04 1-392): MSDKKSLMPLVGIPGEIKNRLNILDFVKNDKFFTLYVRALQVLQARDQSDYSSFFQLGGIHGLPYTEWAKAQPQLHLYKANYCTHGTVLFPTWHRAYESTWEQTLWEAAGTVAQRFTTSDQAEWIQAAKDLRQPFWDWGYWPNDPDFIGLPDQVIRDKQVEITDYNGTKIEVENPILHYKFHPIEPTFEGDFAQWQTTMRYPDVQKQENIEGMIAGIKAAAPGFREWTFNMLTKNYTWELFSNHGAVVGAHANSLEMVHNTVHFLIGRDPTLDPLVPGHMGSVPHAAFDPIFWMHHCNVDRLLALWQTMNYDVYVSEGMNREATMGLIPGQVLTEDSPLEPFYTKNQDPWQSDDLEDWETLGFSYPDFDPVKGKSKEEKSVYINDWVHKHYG

Row | SMILES | % Of melanogenesis inhibition at a specific inhibitor concentration ([1]; 10 µM) | % Of melanogenesis inhibition at a specific inhibitor concentration ([1]; 40 µM) | IC50 ([1]; 24 h) | IC50 [2] | inhibition at 250 µM [3, 6] | IC50 ([3]; n = 3) | also measured
1 | CC(C(=O)N[C@@H](Cc1ccccc1)C(=O)N[C@@H](Cc1ccccc1)C(=O)N[C@@H](Cc1ccc(O)cc1)C(=O)O)c1cccc(C(=NNC(N)=S)c2ccccc2)c1 (mixture of isomers) [Compound 10, TSC2-FFY-OH] | 0% | 4% | 146 µM | 77.4 µM | 45% | – | –
2 | CC(C(=O)N[C@@H](Cc1ccccc1)C(=O)N[C@@H](Cc1ccc(O)cc1)C(=O)N[C@@H](Cc1ccc(O)cc1)C(=O)O)c1cccc(C(=NNC(N)=S)c2ccccc2)c1 (mixture of isomers) [Compound 11, TSC2-FYY-OH] | 0% | 0% | – | 77.2 µM | 36% | – | –
3 | CC(C(=O)N[C@@H](Cc1ccccc1)C(=O)N[C@@H](Cc1c[nH]c2ccccc12)C(=O)N[C@@H](Cc1ccc(O)cc1)C(=O)O)c1cccc(C(=NNC(N)=S)c2ccccc2)c1 (mixture of isomers) [Compound 12, TSC2-FWY-OH] | 0% | 3% | 89.9 µM | 63.2 µM | 50% | – | –
4 | CC(C(=O)O)c1cccc(/C(=N\NC(N)=S)c2ccccc2)c1 (centres unmarked) [Compound 2, thiosemicarbazone of ketoprofen] | – | – | – | – | – | > 150 µM | inhibition at 10 µM ([1]; Mus musculus, 10 µM): 28%; inhibition at 40 µM ([1]; Mus musculus, 40 µM): 77%; IC50 [1, 7]: 19.8 µM; IC50 [2, 8]: 71.5 µM; inhibition at 150 µM ([3]; at 150 μM, n = 3, read-out: The maximum percentage of inhibition reached for poor inhibitors): 34%; tyrosinase inhibition (in words) [3]: no significant inhibition towards tyrosinase
5 | CC(=O)N[C@@H](Cc1ccccc1)C(=O)N[C@@H](Cc1ccccc1)C(=O)N[C@@H](Cc1ccc(O)cc1)C(=O)O [Compound 4, Ac-FFY-OH] (Ac-Phe-Phe-Tyr-OH) | 1% | 3% | 246 µM | 106 µM | – | – | tyrosinase inhibition (in words) [3]: no significant inhibition was observed in the tested range of concentrations; IC50 ([4]; tyrosinase inhibition, read-out: IC50 found in the literature): 240 µM
6 | CC(=O)N[C@@H](Cc1ccccc1)C(=O)N[C@@H](Cc1ccc(O)cc1)C(=O)N[C@@H](Cc1ccc(O)cc1)C(=O)O [Compound 5, Ac-FYY-OH] (Ac-Phe-Tyr-Tyr-OH) | 0% | 2% | 175 µM | 96.6 µM | – | – | tyrosinase inhibition (in words) [3]: no significant inhibition was observed in the tested range of concentrations
7 | CC(=O)N[C@@H](Cc1ccccc1)C(=O)N[C@@H](Cc1c[nH]c2ccccc12)C(=O)N[C@@H](Cc1ccc(O)cc1)C(=O)O [Compound 6, Ac-FWY-OH] (Ac-Phe-Trp-Tyr-OH) | 0% | 4% | 141 µM | 81 µM | – | – | tyrosinase inhibition (in words) [3]: no significant inhibition was observed in the tested range of concentrations
8 | NC(=S)N/N=C/c1ccc(C(=O)N[C@@H](Cc2ccccc2)C(=O)N[C@@H](Cc2ccccc2)C(=O)N[C@@H](Cc2ccc(O)cc2)C(=O)O)cc1 [Compound 7, TSC1-FFY-OH] | 1% | 10% | 138 µM | 72.8 µM | 77% | > 150 µM | –
9 | NC(=S)N/N=C/c1ccc(C(=O)N[C@@H](Cc2ccccc2)C(=O)N[C@@H](Cc2ccc(O)cc2)C(=O)N[C@@H](Cc2ccc(O)cc2)C(=O)O)cc1 [Compound 8, TSC1-FYY-OH] | 3% | 12% | 158 µM | 99 µM | – | 6.5 µM and 6.57 µM | –
10 | NC(=S)N/N=C/c1ccc(C(=O)N[C@@H](Cc2ccccc2)C(=O)N[C@@H](Cc2c[nH]c3ccccc23)C(=O)N[C@@H](Cc2ccc(O)cc2)C(=O)O)cc1 [Compound 9, TSC1-FWY-OH] | 0% | 11% | 151 µM | 77.1 µM | – | 6.5 µM and 6.66 µM | –
11 | C/C(=N\NC(N)=S)c1ccc(C(=O)N[C@@H](Cc2ccccc2)C(=O)N[C@@H](Cc2ccccc2)C(=O)N[C@@H](Cc2ccc(O)cc2)C(=O)O)cc1 [Compound 13, TSC3-FFY-OH] | 0% | 3% | 162 µM | 49.8 µM | 62% | > 150 µM | –
12 | C/C(=N\NC(N)=S)c1ccc(C(=O)N[C@@H](Cc2ccccc2)C(=O)N[C@@H](Cc2ccc(O)cc2)C(=O)N[C@@H](Cc2ccc(O)cc2)C(=O)O)cc1 [Compound 14, TSC3-FYY-OH] | 0% | 4% | 145 µM | 83.7 µM | – | 26.1 ± 9 µM | –
13 | C/C(=N\NC(N)=S)c1ccc(C(=O)N[C@@H](Cc2ccccc2)C(=O)N[C@@H](Cc2c[nH]c3ccccc23)C(=O)N[C@@H](Cc2ccc(O)cc2)C(=O)O)cc1 [Compound 15, TSC3-FWY-OH] | 5% | 20% | 67.1 µM | 67.5 µM | – | 25.1 ± 2.5 µM | –
14 | O=c1cc(CO)occ1O [Kojic acid, reference compound] | – | – | – | – | – | – | inhibition at 10 µM ([1]; Mus musculus, 10 µM): 1%; inhibition at 40 µM ([1]; Mus musculus, 40 µM): 12%; IC50 [1, 7]: 121 µM; IC50 [2, 8]: 162 µM
15 | NC(=S)N/N=C(\Cc1ccccc1)c1ccccc1 [thiosemicarbazone of (E)-2-phenylacetophenone] | – | – | – | – | – | – | tyrosinase inhibition (in words) [4]: did not inhibit tyrosinase at all; IC50 [5]: < 2 µM
16 | NC(=S)NN=C(c1ccccc1)c1ccccc1 [thiosemicarbazone of benzophenone] | – | – | – | – | – | – | tyrosinase inhibition (in words) [4]: efficient tyrosinase inhibitor; IC50 [5]: < 2 µM
